Consider 2 molecules from patent US12516034B2, “Process for preparing high-density quercetin” (TRADICHEM INDUSTRIAL SERVICES, S.L., priority 2022, dated 2026).

Format in all cases: physicochemical
The nature of data set [1]: Bulk density (PT-SV100 Scott Volumeter). As to conditions: after roller compaction vs starting non-compacted quercetin. From the text:
The bulk density, also called apparent density, can be defined as the ratio of the mass to the volume of an untapped powder sample, as “poured”. The bulk density is given in grams per millilitre (g/ml) and is typically calculated by “pouring” a known mass of powder into a graduated cylinder. Bulk density and tapped density can be measured according to the method disclosed in the European Pharmacopoeia section 2.9.34 (Bulk density and tapped density of powders), for example, the bulk density may be measured using the PT-SV100 Scott Volumeter and the tapped density may be measured using the PT-TD200 Tap Density Tester (Pharma Test Apparatebau AG, Germany). The bulk density was measured using a PT-SV100 Scott Volumeter (Pharma Test) and the tapped density was measured using a PT-TD200 Tap Density Tester (Pharma Test).

A short description of data set [2]: Solubility compared to non-compacted quercetin. As to conditions: compared to standard. An excerpt:
It is advantageous, as the poor solubility of quercetin is one of the drawbacks of this substance, as it impairs its biological availability and, consequently, its therapeutic activity.

Data set [3] can be described thus: Hausner ratio, powder flowability. As to conditions: calculated from bulk and tapped density. Here is the method: Hausner ratio is also predictive of powder flow, and is calculated according to the following formula: In this case, a Hausner ratio greater than 1.34 is generally considered to be an indication of poor flowability. The relationship between Carr index and/or Hausner ratio with powder flowability is well recognized in the art, for example, as disclosed by M. E. Aulton, in “Powder flow”, chapter 12 of the well-recognized reference book in pharmaceutical technology “Aulton's Pharmaceutics. The design and manufacture of medicines”, Fifth Edition 2018, M. E. Aulton and K. M. G. Taylor, Editors, Elsevier Ltd, as summarized in Table 1: Hausner ratio was also calculated using bulk and tapped density values, according to the following formula: […]

A short description of a further data set: Angle of repose. As to conditions: tan^-1 (height/radius) of cone after pouring. From the text:
The “angle of repose” is another parameter for indirectly quantifying powder flowability. It is the angle at which a material will rest on a stationary heap, specifically, is the angle formed by the heap slope and the horizontal plane. It may be calculated by different methods, commonly, just pouring the material on a flat surface. It also can be calculated as “drained angle of repose”, as the angle measured on the internal conical face of a material which has been formed when drained from an orifice of a flat-bottomed container to the horizontal. A dynamic angle of repose can also be used, which is the angle to the horizontal of the free surface formed in a relatively slowly rotating drum (Aulton, op. cit., pg. 197). In this case, the lower the value of the angle of repose, the higher the flowability of the material. It is generally considered that an angle of repose higher than 45 correlates with poor flowability, whereas an angle of repose under 30 correlates with excellent flowability. The angle of repose was determined by measuring the radius and the height of the cone formed after pouring the powder, using the formula tan^−1 (height/radius).

Data set [4] is described as follows: Carr index (compressibility index), powder flowability. To be noted: for Compressibility (Carr Index): calculated from bulk and tapped density; for Flowability (type of flow according to Table 1): classification by Carr index / Hausner ratio. The protocol:
The Carr index, also called Carr's index or compressibility index, is calculated according to the following formula: Free flowing powders have smaller values of the Carr index than poor flowing powders. In general, a Carr index greater than 25 is considered to be an indication of poor flowability, and below 15, of good flowability. The relationship between Carr index and/or Hausner ratio with powder flowability is well recognized in the art, for example, as disclosed by M. E. Aulton, in “Powder flow”, chapter 12 of the well-recognized reference book in pharmaceutical technology “Aulton's Pharmaceutics. The design and manufacture of medicines”, Fifth Edition 2018, M. E. Aulton and K. M. G. Taylor, Editors, Elsevier Ltd, as summarized in Table 1: Carr index was calculated from the bulk and tapped density measured values, using the following formula: […]

A short description of data set [5]: Tapped density (PT-TD200 Tap Density Tester). As to conditions: after mechanical tapping. The protocol: On the other hand, tapped density, also called compacted density, of a powder is the ratio of the mass of the powder to the volume occupied by the powder after it has been tapped for a defined period of time. Tapped density is measured by first gently introducing a known sample mass into a graduated cylinder and carefully levelling the powder without compacting it. The cylinder is then mechanically tapped by raising the cylinder and allowing it to drop under its own weight using a suitable mechanical tapped density tester that provides a suitable fixed drop distance and nominal drop rate Bulk density and tapped density can be measured according to the method disclosed in the European Pharmacopoeia section 2.9.34 (Bulk density and tapped density of powders), for example, the bulk density may be measured using the PT-SV100 Scott Volumeter and the tapped density may be measured using the PT-TD200 Tap Density Tester (Pharma Test Apparatebau AG, Germany). The bulk density was measured using a PT-SV100 Scott Volumeter (Pharma Test) and the tapped density was measured using a PT-TD200 Tap Density Tester (Pharma Test).

Take `O=c1c(O)c(-c2ccc(O)c(O)c2)oc2cc(O)cc(O)c12` [Compacted quercetin, 3,3′,4′,5,7-pentahydroxyflavone]: the “Increase of bulk density” value in data set [1] is recorded as “about 200%”. Besides, in data set [2], the Solubility result is listed as “improved”. In addition, the Hausner ratio in data set [3] was 1.09. The Angle of repose in “Angle of repose” is 25-30°. Moreover, in data set [4], the “Compressibility (Carr Index)” value is 8.45 and the “Flowability (type of flow according to Table 1)” value was “excellent”. For the same molecule, in data set [5], the Tapped density was determined as 0.71 g/mL.

Regarding `O=c1c(O)c(-c2ccc(O)c(O)c2)oc2cc(O)cc(O)c12` [Non-compacted quercetin, 3,3′,4′,5,7-pentahydroxyflavone, reference compound], in data set [3], the Hausner ratio is 2.10. The Angle of repose in “Angle of repose” is >45°. In data set [4], the “Compressibility (Carr Index)” value is 52.27 and the “Flowability (type of flow according to Table 1)” value is listed as “very, very poor”. Also, the Tapped density in data set [5] is 0.44 g/mL.
